Consider 10 molecules from PMC5841354, “Gomesin peptides prevent proliferation and lead to the cell death of devil facial tumour disease cells” (Cell Death Discovery, 2018).

Where a SMILES comes first, the peptide text is derived from it. Bridges are numbered along the chain shown (N, C = ends). [ ]: non-standard residue; d: D form. pGlu = O=C1CC[C@@H](C(=O)O)N1

Data set [1] concerns DFTD4 cells. Briefly: MTT cell viability, DFTD4 cells. The format is cell-based, Tasmanian devil (Sarcophilus harrisii). As to conditions: 48 h; for anti-proliferative / cytotoxic activity compared with AgGom: DFTD cell lines (DFTD1, DFTD2, DFTD4); for cell viability / anti-proliferative activity in DFTD4 cells: 50 µg/mL. An excerpt:
(§1) All DFTD (DFTD1, DFTD2, and DFTD4) and fibroblast (FIBS) cell lines were obtained from the Department of Primary Industries, Parks, Water, and Environment, State Government of Tasmania (DPIPWE) and were established as part of management plan and adhere to a standard operating practice. The DFTD1 cell line with catalogue number 3287 is derived from the tumour from a female devil (tag number: 06/2887) collected at St Marys, Eastern Tasmania in 2006. DFTD2 cell line with catalogue number 8961 was developed from a tumour from a male devil (tag number: 12/0625) collected at Kempton, Northern Tasmania in 2012. The DFTD4 cell line with catalogue number 4099 was developed from the tumour of a male devil (tag number: 07/0192) that was collected at Freycinet, east coast of Tasmania in 2007 and Fibroblasts cells (FIBS) with catalogue number 497 were obtained from a healthy devil male pup (tag number: 05/0962) held at Mount Pleasant, Southeastern of Tasmania in 2005.
(§2) Devil Facial Tumor cancer cell lines, and the control Tasmanian Devil fibroblast (FIBS) healthy cell line were maintained in a humidified incubator at 35 °C and 5% CO2. The DFTD cell lines were cultured in RPMI-1640 medium supplemented with 10% FCS, and 2 mM Glutamax. The FIBS was grown in GIBCO AmnioMAX-C100 Basal Medium liquid, containing AmnioMAX-C100 supplement. Penicillin/streptomycin (PS) (100 U/ml each) was added to both media. The cells were passaged at ~90% confluency. Functional studies were performed with passages up to 20. All cell lines were mycoplasma free.
(§3) Cell viability as an indicator of the number of viable and proliferative cells was measured by MTT according to the protocol of the manufacturer (Sigma-Aldrich, Australia). In brief, 8000 DFTD and 5000 FIBS cells/well were seeded in a 96-flat adherent microtiter well plate for 24 h to allow cell adhesion. Gomesin peptides and/or analogues were then added to the plates to measure MTT reduction. Plates were measured after 48 h at 540 nm absorbance in a microplate reader (BIOTEK PowerWave XS, USA). 0.1% SDS was used as a positive control (100% toxicity). A row of untreated cells was used to define 100% viability and blank wells containing only media were used to extract background. The concentration of gomesin peptides causing 50% inhibition (EC50) in DFTD and FIBS cells was determined using GraphPad Prism Software (Graphpad Inc, USA).

The next data set relates to FIBS cells. Briefly: MTT cell viability, non-transformed fibroblasts (FIBS). Format: cell-based, Tasmanian devil (Sarcophilus harrisii). As to conditions: 50 µg/mL, 48 h.
Text: as §1, §2, §3

The subject of data set [2] is DFTD4 cells. Nature of the data set: Annexin V-FITC/PI apoptosis and necrosis. Format: cell-based, Tasmanian devil (Sarcophilus harrisii). The note with it: 10 µM, 24 h, positive control. The procedure:
Apoptosis in DFTD4 cells treated with AgGom or HiGom was measured using an Annexin V-FITC Apoptosis detection kit in combination with a Canto II high-throughput fluorescence-activated cell sorter (BD Biosciences, USA). Briefly, cells were seeded at a density of 100,000 cells/well in a round-bottom 96-well plate and treated with 50 µg/mL AgGom or HiGom for 24 h. The cells were collected mechanically, washed twice with PBS and once with wash buffer provided by the manufacturer. Cells were stained simultaneously with FITC-labelled annexin V and PI for 30 min in the dark and at room temperature before being analysed.

For the next data set, the system named is DFTD. As to conditions: human chemotherapeutic agents in Tasmanian devils; cited from earlier work. An excerpt: With no treatment available for DFTD, scientists maintain captive, disease-free breeding populations that are released into the wild. Major research efforts are focused on understanding the molecular mechanisms of DFTD and why tumour cells fail to stimulate an immune response in the Tasmanian Devil, including the dramatic downregulation of the expression of Major Histocompatibility Complex (MHC) Class I genes[5]–[9]. Previous trials to treat DFTD using human chemotherapeutic agents, such as vincristine, doxorubicin, and carboplatin have proven to be unsuccessful[10],[11]. In this study, we pos ...

As for `CC(C)C[C@@H]1NC(=O)[C@H](CCCNC(=N)N)NC(=O)[C@H](CCCNC(=N)N)NC(=O)[C@@H](NC(=O)[C@@H]2CCC(=O)N2)CSSC[C@@H](C(=O)N[C@@H](CCCNC(=N)N)C(=O)NCC(=O)N[C@@H](CCCNC(=N)N)C(N)=O)NC(=O)[C@H](Cc2ccc(O)cc2)NC(=O)[C@H]([C@@H](C)O)NC(=O)[C@H](C(C)C)NC(=O)[C@@H]2CSSC[C@H](NC1=O)C(=O)N[C@@H](Cc1ccc(O)cc1)C(=O)N[C@@H](CCCCN)C(=O)N[C@@H](CC(N)=O)C(=O)N[C@@H](CCCNC(=N)N)C(=O)N2` [AgGomKN] ([pGlu]CRRLCYKNRCVTYCRGR-NH2; disulfide 2-15, 6-11), in the data set on DFTD4 cells [1], the “anti-proliferative / cytotoxic activity compared with AgGom” value is listed as “higher anti-proliferative activity than AgGom”. For the same molecule, in the data set on FIBS cells, the “deleterious effects on FIBS viability” value is recorded as “minimal deleterious effects”.

With `CC(C)C[C@@H]1NC(=O)[C@H](CCCNC(=N)N)NC(=O)[C@H](CCCNC(=N)N)NC(=O)[C@@H](NC(=O)[C@@H]2CCC(=O)N2)CSSC[C@@H](C(=O)N[C@@H](CCCNC(=N)N)C(=O)NCC(=O)N[C@@H](CCCNC(=N)N)C(N)=O)NC(=O)[C@H](Cc2ccc(O)cc2)NC(=O)[C@H]([C@@H](C)O)NC(=O)[C@H](C(C)C)NC(=O)[C@@H]2CSSC[C@H](NC1=O)C(=O)N[C@@H](Cc1ccc(O)cc1)C(=O)N[C@@H](CCCCN)C(=O)N[C@@H](CCCNC(=N)N)C(=O)N[C@@H](CCCNC(=N)N)C(=O)N2` [AgGomKR] ([pGlu]CRRLCYKRRCVTYCRGR-NH2; disulfide 2-15, 6-11), the “anti-proliferative / cytotoxic activity compared with AgGom” value with DFTD4 cells [1] is on record as “higher anti-proliferative activity than AgGom”. Further, the “deleterious effects on FIBS viability” value in the data set with FIBS cells was “minimal deleterious effects”.

With `CC[C@H](C)[C@@H]1NC(=O)[C@H](CCCNC(=N)N)NC(=O)[C@H](CCCNC(=N)N)NC(=O)[C@@H](NC(=O)[C@@H]2CCC(=O)N2)CSSC[C@@H](C(=O)N[C@@H](CCCNC(=N)N)C(=O)NCC(=O)N[C@@H](CCCNC(=N)N)C(N)=O)NC(=O)[C@H](Cc2ccc(O)cc2)NC(=O)[C@H]([C@@H](C)O)NC(=O)[C@H](Cc2ccccc2)NC(=O)[C@@H]2CSSC[C@H](NC1=O)C(=O)NCC(=O)N[C@@H](CCCNC(=N)N)C(=O)N[C@@H](CCCNC(=N)N)C(=O)N[C@@H](CCCNC(=N)N)C(=O)N2` [SpGom] ([pGlu]CRRICGRRRCFTYCRGR-NH2; disulfide 2-15, 6-11), the “anti-proliferative / cytotoxic activity compared with AgGom” value in the data set with DFTD4 cells [1] is “higher anti-proliferative activity than AgGom”. Moreover, the “deleterious effects on FIBS viability” value in the data set with FIBS cells is on record as “minimal deleterious effects”.

Take `CC[C@@]1(O)C(=O)OCc2c1cc1n(c2=O)Cc2cc3ccccc3nc2-1` [camptothecin, reference compound]: the late apoptosis with DFTD4 cells [2] is reported as above 30%.

In the case of `N.N.O=C([O-])C1(C(=O)[O-])CCC1.[Pt+2]` [carboplatin], in the data set on DFTD, the “outcome of trials to treat DFTD” value is recorded as “unsuccessful”.

Take `COc1cccc2c1C(=O)c1c(O)c3c(c(O)c1C2=O)C[C@@](O)(C(=O)CO)C[C@@H]3O[C@H]1C[C@H](N)[C@H](O)[C@H](C)O1` [doxorubicin]: the “outcome of trials to treat DFTD” value with DFTD is recorded as “unsuccessful”.

As to `CC[C@]1(O)C[C@H]2CN(CCc3c([nH]c4ccccc34)[C@@](C(=O)OC)(c3cc4c(cc3OC)N(C=O)[C@H]3[C@@](O)(C(=O)OC)[C@H](OC(C)=O)[C@]5(CC)C=CCN6CC[C@]43[C@@H]65)C2)C1` [vincristine], the “outcome of trials to treat DFTD” value in the data set on DFTD is reported as “unsuccessful”.

For the molecule “ZCARLCYKQRCVTYCRGR-NH2 (bicyclic or more) [AgGomR3A, AgGom analogue R3A]”, in the data set with DFTD4 cells [1], the “cell viability / anti-proliferative activity in DFTD4 cells” value is on record as “eradicated the anti-proliferative activity”.

Consider “ZCRRACYKQRCVTYCRGR-NH2 (bicyclic or more) [AgGomL5A, AgGom analogue L5A]”, for which the “cell viability / anti-proliferative activity in DFTD4 cells” value in the data set on DFTD4 cells [1] is listed as “eradicated the anti-proliferative activity”.

On to “ZCRRLCYKQRCATYCRGR-NH2 (bicyclic or more) [AgGomV12A, AgGom analogue V12A]”, for which the “cell viability / anti-proliferative activity in DFTD4 cells” value with DFTD4 cells [1] is “eradicated the anti-proliferative activity”.
